{"source": "patent US7074807B2", "about": "“Compositions and methods for inducing cell death” (Georgetown University, priority 1998, dated 2006)", "format_in_all_cases": "cell-based, human", "key": {"LNCaP cells [1]": {"test_system": "LNCaP cells", "assay": "Light and transmission electron microscopy of LNCaP cells", "description": "LNCaP cells ([…]) were seeded in 25 cm2 tissue culture flasks in RPMI medium containing 10% BCS overnight, followed by change to RPMI medium containing 5% BCS stimulation with 0.1% ethanol (control, 11A1, 11B1) or tempo (2.5 mM, 11A2, 11B2) for indicated times.\n12A1, untreated, 4,000×; 12A2, a portion of the cell shown in 12A1, 20,000×; 12B1, 0.1% ethanol, 24 hr, 4,000×; 12B2, a portion of the cell shown in 12B1, 20,000×; 12C1, 5 mM tempo, 24 hr, 4,000×; 12C2, a portion of the cell shown in 12C1, […]; 12D, 5 mM tempo, 24 hr, a portion of another cell, 20,000×. M, mitrochondria; G, golgi apparatus; RER, rough endoplasmic reticulum; Cy, cytoplasm; N, nucleus; Arrow in panel C2 indicates swelling in the nuclear membrane.\nLNCaP cells were treated with tempo as described in legend to FIG. 2. Following treatment, monolayer cells were washed three times with PBS, and fixed in 2.5% glutaraldehyde/3% paraformaldehyde in PBS. After fixation, the cell monolayer was washed in PBS. The cells were collected by gentle scraping using a rubber policeman, and centrifuged. The pellet was embedded in 1% agarose to facilitate handling. Post-fixation was performed in 1% osmium tetroxide in distilled water for 1 hr, followed by washing three times in distilled water, enbloc staining with 2% uranyl acetate for 30 min in dark, and washing three times in distilled water. […]"}, "PC-3 cells": {"test_system": "PC-3 cells", "assay": "Annexin V apoptosis in prostate cancer cells (5% BCS)", "settings": "2.5 mM, 24 hr", "description": "(§1) Cells were grown overnight in medium containing 10% BCS in T-25 flasks, switched to medium containing 5% BCS and treated with tempo. Following treatment, cells were washed, trypsinized, and resuspended in […] of 1× binding buffer as described before. […] (9A1–9A3): Cytograms of untreated (9A1); 0.1% ethanol-treated (24 hr) (9A2); and tempo-treated DU145 cells (2.5 mM, 24 hr) (9A3). […] (9B1–9B2), (9C1–9C2), (9D1–9D2): apoptosis (9B1, 9C1, 9D1) and necrosis (9B2, 9C2, […]) in cells treated with tempo (B, 2.5 mM; C, 24 hr; D, doses and times as indicated). Values shown are mean q S.D. of triplicate determination per point in each treatment category.\n(§2) To investigate tempo's effect on prostate cancer cells, human androgen-independent prostate cancer-derived cell lines (DU145 and PC3) were grown to near confluence in 75 cm^2-tissue flasks in Improved Minimum Essential Medium (IMEM) (Cellgro) containing 10% bovine calf serum (BCS) supplemented with 2 mM L-glutamine and 200 IU/ml penicillin and streptomycin mixture in a humidified atmosphere of 5% CO2:95% air at 37° C. Human androgen-dependent prostate cancer-derived cell line (LNCaP) was cultured in RPMI 1640 medium containing 10% BCS and 2 mM L-glutamine. Cells were trypsinized and seeded in equal numbers overnight in 150 mm^2 tissue culture dishes (two dishes per flask) or 25 cm^2 flasks (1×10^6 cells per flask). Cells were treated in medium containing 5% BCS with desired concentration of tempo for various times. Tempo was dissolved in ethanol (0.1%) before use. Control cultures were treated with ethanol (0.1%) for various times. Following treatment, cells were washed 3 times with PBS. […] In LNCaP cells, a relatively higher level of apoptosis was observed (1 mM tempo, 24 hr, approximately 12-fold; 5 mM, 4 hr, approximately 15-fold) (FIGS. 9A1, 9A2, 9A3, 9B1, 9B2, 9C1, 9C2, 9D1, 9D2)."}, "LNCaP cells [2]": {"test_system": "LNCaP cells", "assay": "Annexin V apoptosis in prostate cancer cells (5% BCS)", "description": "as §1, §2"}, "DU145 cells": {"test_system": "DU145 cells", "assay": "Annexin V apoptosis in prostate cancer cells (5% BCS)", "settings": "2.5 mM, 24 hr", "description": "as §1, §2"}}, "data": [{"smiles": "CC1(C)CCCC(C)(C)N1[O]", "note": "[tempo, 2,2,6,6-tetramethylpiperidine-N-oxyl]", "values": [{"measurement": "cell morphology at the light microscopic level", "setting": "LNCaP cells [1]; 2.5 mM", "value": "distinct change in cell morphology from spindle shaped, highly refractile appearance to a more flattened appearance"}, {"measurement": "cells with pronounced vacuolation throughout the cytoplasm", "setting": "LNCaP cells [1]; electron microscopy, 5 mM, 24 hr", "value": "more than 90%"}, {"measurement": "increase in the number of apoptotic cells", "setting": "PC-3 cells", "value": "~6.7", "unit": "fold"}, {"measurement": "level of apoptosis (increase)", "setting": "LNCaP cells [2]; 1 mM, 24 hr", "value": "approximately 12 fold"}, {"measurement": "level of apoptosis (increase)", "setting": "LNCaP cells [2]; 5 mM, 4 hr", "value": "approximately 15 fold"}, {"measurement": "increase in the number of apoptotic cells", "setting": "DU145 cells", "value": "approximately 3.4 fold"}]}]}
